Consider 3 substances from patent US20190274308A1, “METHOD FOR PROTECTING PLANTS FROM PESTS USING A PESTICIDE COMPOSITION WITH ADJUSTABLE PERSISTENCE AND DEGRADABILITY” (Flechsig Patent Company LLC, priority 2016, published 2019).

The format of this data set is physicochemical. From the text: A further characterizing parameter of the soil is the content of microorganisms, in particular bacteria, fungi and microfauna.
Tables 5 and 6 below indicate the degradation times of exemplary poly(alkyl)guanidines depending on various contents of microorganisms in the soil.
These determinations were obtained basically according to established methods, in particular as described in “Bodenbiologische Arbeitsmethoden”, 2nd revised and expanded edition, F. Schinner, E. Kandeler, R. Öhlinger, R. Margesin (eds.) (1993).
To determine the total bacterial count according to Trolldenier (1972), a soil suspension is applied onto a defined area of a slide and the dried soil film is stained with acridine orange. The bacterial count is determined in a plurality of counting fields under the fluorescence microscope and from this the total bacterial count of the soil sample is calculated.
The ergosterol of the soil fungi is saponified with KOH, extracted with n-hexane in the separating funnel, dried at 40° C. in the rotary evaporator and then dissolved in methanol. Detection is achieved by means of HPLC at 282 nm. The procedure is based on the method of Zelles et al. (1987) and was modified in a few points.
For the sake of simplicity calculation is performed using the dimensions of the dishes. At least 10 individuals per species should be measured. The resulting volume mean value can be equated numerically with the weight, as the specific mass of the microfauna is approximately 1 g cm^−3.

Take poly(tetramethylene)guanidine [C4 PTMG]: the “Difference days min/max degradation time, bact., fungi, microfauna” value (from here on “Difference days min/max degradation time”) is listed as 22 days.

Regarding poly(octamethylene)guanidine [C8 POMG], the “Difference days min/max degradation time” value is 36 days.

For the substance poly(hexamethylene)guanidine [C6 PHMG], the “Difference days min/max degradation time” value worked out at 30 days.
